Data on 27 compounds can be found in patent US8071625B2, “Certain chemical entities, compositions, and methods” (Cytokinetics, Inc., priority 2006, dated 2011).

The target of the test is T1, crosslinked smooth muscle actomyosin (chicken gizzard smooth muscle myosin subfragment-1 crosslinked to cardiac or skeletal actin) (Gallus gallus, UniProt P10587).
T1 construct: chicken gizzard smooth muscle myosin subfragment-1; from tissue; host or cells: chicken gizzard
The test can be described thus: Lead optimization pyruvate kinase/horseradish peroxidase/pyruvate oxidase-coupled ATPase assay (compound dose response). In kind it is biochemical. Conditions: read-out: IC50 Arithmetic Mean. The protocol: Screening assays were performed using a pyruvate kinase and lactate dehydrogenase-coupled ATPase assay containing the following reagents: Potassium PIPES (50 mM), MgCl2 (3 mM), KCl (100 mM), ATP (0.15 mM), DTT (1 mM), BSA (0.1 mg/ml), NADH (0.5 mM), PEP (1.5 mM), pyruvate kinase (4 U/ml), lactate dehydrogenase (8 U/ml), and antifoam (50 ppm) (concentrations expressed are final assay concentrations). The pH was adjusted to 6.80 at 22° C. by addition of potassium hydroxide. Lead optimization assays were performed with a more sensitive pyruvate kinase/horseradish peroxidase/pyruvate oxidase-coupled ATPase assay containing the following reagents: Potassium PIPES (12 mM), MgCl2 (2 mM), KCl (100 mM), ATP (0.15 mM), BSA (0.05 mg/ml), potassium phosphate (2 mM), amplex red (0.1 mM), PEP (0.1 mM), pyruvate kinase (4 U/ml), horseradish peroxidase (0.5 U/ml), pyruvate oxidase (0.5 U/ml), and antifoam (50 ppm) (concentrations expressed are final assay concentrations). The pH was adjusted to 7.00 at 22° C. by addition of potassium hydroxide.
The protein components specific to this assay are chicken gizzard smooth muscle myosin subfragment-1 that has been chemically crosslinked to either cardiac or skeletal actin using an excess of 1-Ethyl-3-[3-dimethylaminopropyl]carbodiimide hydrochloride and N-hydroxysuccinimide. The exact concentration of the crosslinked smooth muscle myosin in the assay is determined empirically, by titration to achieve a desired rate of ATP hydrolysis. The concentration varies between protein preparations due to variations in the fraction of active molecules in each preparation.
Compound dose response assays are performed by first preparing a dilution series of test compound, each with an assay mixture containing potassium PIPES, MgCl2, KCl, ATP, BSA, potassium phosphate, amplex red, PEP, crosslinked smooth muscle actomyosin (subfragment-1), antifoam, and water. The assay is started by adding an equal volume of solution containing potassium Pipes, MgCl2, KCl, BSA, potassium phosphate, pyruvate kinase, horseradish peroxidase, pyruvate oxidase, antifoam, and water. ATP hydrolysis is monitored by measuring the fluorescence of amplex red (excitation at 480 nm, emission at 615 nm). The resulting dose response curve is fit by the 4 parameter equation y=Bottom+((Top-Bottom)/(1+((IC50/X)^Hill))). The IC50 is defined as the concentration at which ATPase activity is midway between the top and bottom of the dose response curve.

Regarding `CCc1ccc(NC(=O)OCC2(C(=O)NCc3ccccc3Cl)CCCN(C(=O)[C@@H](N)CO)C2)cc1` (stereo partly drawn) [(1-((2S)-2-amino-3-hydroxypropanoyl)-3-{[N-(4-ethylphenyl)carbamoyloxy]methyl}(3-piperidyl))-N-[(2-chlorophenyl)methyl]carboxamide], the IC50 was found to be 1480 nM. Consider `CCc1ccc(NC(=O)OCC2(C(=O)NCc3ccccc3Cl)CCN(C(=O)[C@@H](N)CO)CC2)cc1` [(1-((2S)-2-amino-3-hydroxypropanoyl)-4-{[N-(4-ethylphenyl)carbamoyloxy]methyl}(4-piperidyl))-N-[(2-chlorophenyl)methyl]carboxamide], for which the 50% inhibitory concentration (IC50) stood at 125 nM. Under `CCc1ccc(NC(=O)OCC2(C(=O)NCc3ccccc3Cl)CCN(C(=O)[C@H](C)N)CC2)cc1` [(1-((2S)-2-aminopropanoyl)-4-{[N-(4-ethylphenyl)carbamoyloxy]methyl}(4-piperidyl))-N-[(2-chlorophenyl)methyl]carboxamide] stands 724 nM; under `CCc1ccc(NC(=O)OCC2(C(=O)NCc3ccccc3Cl)CCN(C(=O)C3CCN3)CC2)cc1` (stereo not drawn) [(1-(azetidin-2-ylcarbonyl)-4-{[N-(4-ethylphenyl)carbamoyloxy]methyl}(4-piperidyl))-N-[(2-chlorophenyl)methyl]carboxamide], 221 nM; under `CCc1ccc(NC(=O)OCC2(C(=O)NCc3ccccc3Cl)CCN(S(=O)(=O)CCN)CC2)cc1` [(1-[(2-aminoethyl)sulfonyl]-4-{[N-(4-ethylphenyl)carbamoyloxy]methyl}(4-piperidyl))-N-[(2-chlorophenyl)methyl]carboxamide], 274 nM. `CCc1ccc(NC(=O)OCC2(C(=O)NCc3ccccc3Cl)CCN(C(C)=O)CC2)cc1` [(1-acetyl-4-{[N-(4-ethylphenyl)carbamoyloxy]methyl}(4-piperidyl))-N-[(2-chlorophenyl)methyl]carboxamide]: the half-maximal inhibitory concentration (IC50) worked out at 418 nM. For `CCc1ccc(NC(=O)OCC2(C(=O)NCc3ccccc3C#N)CCN(C(=O)CNC(=O)OC(C)(C)C)CC2)cc1` [(1-{2-[(tert-butoxy)carbonylamino]acetyl}-4-{[N-(4-ethylphenyl)carbamoyloxy]methyl}(4-piperidyl))-N-[(2-cyanophenyl)methyl]carboxamide], the concentration for half-maximal inhibition (IC50) stood at 7690 nM.

On to `CCc1ccc(NC(=O)OCC2(C(=O)NCc3ccccc3OC)CCN(C(=O)CNC(=O)OC(C)(C)C)CC2)cc1` [(1-{2-[(tert-butoxy)carbonylamino]acetyl}-4-{[N-(4-ethylphenyl)carbamoyloxy]methyl}(4-piperidyl))-N-[(2-methoxyphenyl)methyl]carboxamide], for which the IC50 is 11300 nM. Under `CCc1ccc(NC(=O)NC[C@@H]2CCCN2C(=O)OCc2ccccc2Cl)cc1` [(2-chlorophenyl)methyl (2S)-2-({[(4-ethylphenyl)amino]carbonylamino}methyl)pyrrolidinecarboxylate] stands 3530 nM; under `CCc1ccc(NC(=O)OCCOC(=O)NCc2ccccc2Cl)cc1` [(2-{N-[(2-chlorophenyl)methyl]carbamoyloxy}ethoxy)-N-(4-ethylphenyl)carboxamide], 3690 nM. On to `CCc1ccc(NC(=O)OCC2CN(C(=O)CN)CCN2C(=O)NCc2ccccc2Cl)cc1` (stereo not drawn) [(4-(2-aminoacetyl)-2-{[N-(4-ethylphenyl)carbamoyloxy]methyl}piperazinyl)-N-[(2-chlorophenyl)methyl]carboxamide], for which the IC50 came out at 2380 nM.

Turning to `CCc1ccc(NC(=O)N2CCN(C(=O)CN)C(C(=O)NCc3ccccc3Cl)C2)cc1` (stereo not drawn) [(4-(2-aminoacetyl)-3-{N-[(2-chlorophenyl)methyl]carbamoyl}piperazinyl)-N-(4-ethylphenyl)carboxamide], the half-maximal inhibitory concentration (IC50) is 15200 nM.

As for `Cc1ccc(NC(=O)OCC2(C(=O)NCc3ccccc3Cl)CCOCC2)c(C)c1` [(4-{[N-(2,4-dimethylphenyl)carbamoyloxy]methyl}(2H-3,4,5,6-tetrahydropyran-4-yl))-N-[(2-chlorophenyl)methyl]carboxamide], the IC50 was determined as 1260 nM. With `O=C(Nc1ccccc1Cl)OCC1(C(=O)NCc2ccccc2Cl)CCOCC1` [(4-{[N-(2-chlorophenyl)carbamoyloxy]methyl}(2H-3,4,5,6-tetrahydropyran-4-yl))-N-[(2-chlorophenyl)methyl]carboxamide], the IC50 was 17300 nM. Under `Cc1ccc(NC(=O)OCC2(C(=O)NCc3ccccc3Cl)CCOCC2)cc1C` [(4-{[N-(3,4-dimethylphenyl)carbamoyloxy]methyl}(2H-3,4,5,6-tetrahydropyran-4-yl))-N-[(2-chlorophenyl)methyl]carboxamide] stands 2340 nM; under `O=C(Nc1cc(Cl)cc(Cl)c1)OCC1(C(=O)NCc2ccccc2Cl)CCOCC1` [(4-{[N-(3,5-dichlorophenyl)carbamoyloxy]methyl}(2H-3,4,5,6-tetrahydropyran-4-yl))-N-[(2-chlorophenyl)methyl]carboxamide], 18300 nM. For the compound `Cc1c(Cl)cccc1NC(=O)OCC1(C(=O)NCc2ccccc2Cl)CCOCC1` [(4-{[N-(3-chloro-2-methylphenyl)carbamoyloxy]methyl}(2H-3,4,5,6-tetrahydropyran-4-yl))-N-[(2-chlorophenyl)methyl]carboxamide], the IC50 turned out to be 16200 nM. For `Cc1ccc(NC(=O)OCC2(C(=O)NCc3ccccc3Cl)CCOCC2)cc1Cl` [(4-{[N-(3-chloro-4-methylphenyl)carbamoyloxy]methyl}(2H-3,4,5,6-tetrahydropyran-4-yl))-N-[(2-chlorophenyl)methyl]carboxamide], the IC50 was 1960 nM. Under `CC(=O)c1ccc(NC(=O)OCC2(C(=O)NCc3ccccc3Cl)CCOCC2)cc1` [(4-{[N-(4-acetylphenyl)carbamoyloxy]methyl}(2H-3,4,5,6-tetrahydropyran-4-yl))-N-[(2-chlorophenyl)methyl]carboxamide] stands 4270 nM. Under `CC(=O)c1ccc(NC(=O)OCC2(C(=O)NCc3ccccc3Cl)CCN(C(=O)CN)CC2)cc1` [(4-{[N-(4-acetylphenyl)carbamoyloxy]methyl}-1-(2-aminoacetyl)(4-piperidyl))-N-[(2-chlorophenyl)methyl]carboxamide] stands 1190 nM; under `O=C(Nc1ccc(Cl)cc1)OCC1(C(=O)NCc2ccccc2Cl)CCOCC1` [(4-{[N-(4-chlorophenyl)carbamoyloxy]methyl}(2H-3,4,5,6-tetrahydropyran-4-yl))-N-[(2-chlorophenyl)methyl]carboxamide], 2780 nM. Under `CCc1ccc(NC(=O)N[C@H]2CCCC[C@@H]2C(=O)NCc2ccccc2Cl)cc1` [((1S,2S)-2-{[(4-ethylphenyl)amino]carbonylamino}cyclohexyl)-N-[(2-chlorophenyl)methyl]carboxamide] stands 16800 nM. Consider `CCc1ccc(NC(=O)OC[C@@H]2CCCN2C(=O)NCc2ccccc2Cl)cc1` [((2S)-2-{[N-(4-ethylphenyl)carbamoyloxy]methyl}pyrrolidinyl)-N-[(2-chlorophenyl)methyl]carboxamide], for which the half-maximal inhibitory concentration (IC50) was 185 nM.

Consider `CCc1ccc(NC(=O)OC[C@@H]2C[C@@H](N)CN2C(=O)NCc2ccccc2Cl)cc1` [((5S,3R)-3-amino-5-{[N-(4-ethylphenyl)carbamoyloxy]methyl}pyrrolidinyl)-N-[(2-chlorophenyl)methyl]carboxamide], for which the IC50 turned out to be 1440 nM.

For the compound `CCc1ccc(NC(=O)N(CCNC(=O)OC(C)(C)C)CC2(C(=O)NCc3ccccc3Cl)CCN(C(=O)CNC(=O)OC(C)(C)C)CC2)cc1` [(tert-butoxy)-N-(2-{N-[(1-{2-[(tert-butoxy)carbonylamino]acetyl}-4-{N-[(2-chlorophenyl)methyl]carbamoyl}(4-piperidyl))methyl][(4-ethylphenyl)amino]carbonylamino}ethyl)carboxamide], the half-inhibitory concentration (IC50) worked out at 19500 nM. Under `CCc1ccc(NC(=O)OCC2(C(=O)NCc3ccccc3Br)CCN(C(=O)CN(C)C(=O)OC(C)(C)C)CC2)cc1` [(tert-butoxy)-N-[2-(4-{N-[(2-bromophenyl)methyl]carbamoyl}-4-{[N-(4-ethylphenyl)carbamoyloxy]methyl}piperidyl)-2-oxoethyl]-N-methylcarboxamide] stands 2860 nM. Under `CCc1ccc(NC(=O)OCC2(C(=O)NCc3ccccc3Cl)CCN(C(=O)C(CO)NC(=O)OC(C)(C)C)CC2)cc1` (stereo not drawn) [(tert-butoxy)-N-[2-(4-{N-[(2-chlorophenyl)methyl]carbamoyl}-4-{[N-(4-ethylphenyl)carbamoyloxy]methyl}piperidyl)-1-(hydroxymethyl)-2-oxoethyl]carboxamide] stands 661 nM.
